Results taken from ChEMBL document CHEMBL1145658, “Catharanthus alkaloids XXXVII. 16-Epi-Z-isositsirikine, a monomeric indole alkaloid with antineoplastic activity from Catharanthus roseus and Rhazya stricta” (1983).
In brackets after ≈: the same amount, converted by molar mass.

Columns and labels:
[1] = test system: P388; experiment: In vivo antitumor activity against mouse P388 cells at 2.5 to 10 mg/kg relative to control; type: functional; settings: dose mg/kg 2.5-10
[2] = test system: KB; experiment: Cytotoxicity against human KB cells; type: functional; settings: read-out: ED50 (the source's name)

Compound: C/C=C1\CN2CCc3c([nH]c4ccccc34)[C@@H]2C[C@@H]1[C@@H](CO)C(=O)OC
- T/C [1]: >=150%
- EC50 [2]: 1.2 µg/mL (≈ 3.39 µM)
